Test results from ChEMBL document CHEMBL5625220, “Discovery of anti-neuroinflammatory agents from 1,4,5,6-tetrahydrobenzo[2,3]oxepino[4,5-d]pyrimidin-2-amine derivatives by regulating microglia polarization” (Eur J Med Chem, 2023).
Activity calls are given as the source filed them. No cut-off for these calls is given here.

Columns and labels:
[1] = Cytotoxicity against mouse BV-2 cells assessed as survival rate at 5 uM incubated for 24 hrs by CCK8 assay relative to control; type: toxicity, cell-based; settings: read-out: Survival
BV-2 [2] = assay: Anti-inflammatory activity in mouse BV-2 cells assessed as inhibition of LPS-induced TNF-alpha production at 5 uM preincubated with LPS for 2 hrs followed by compound addition and measured after 24 hrs by ELISA relative to control; type: functional
BV-2 [3] = assay: Anti-neuroinflammatory activity in LPS-induced mouse BV-2 cells assessed as increase in Arg-1 labeled microglial cells preincubated with LPS for 2 hrs followed by compound addition and measured after 24 hrs by flow cytometric analysis; type: functional, cell-based
BV-2 [4] = assay: Anti-neuroinflammatory activity in LPS-induced mouse BV-2 cells assessed as increase in IL-10 secretion preincubated with LPS for 2 hrs followed by compound addition and measured after 24 hrs by ELISA; type: functional, cell-based
Mus musculus [5] = assay: Anti-inflammatory activity in cuprizone fed C57BL/6 mouse model assessed as decrease in iNOS expression in corpus callosum at 5 mg/kg, ip pretreated with cuprizone for 6 weeks followed by compound administration for 2 weeks by immunofluorescence staining based confocal microscopic analysis; type: functional, organism-based
BV-2 [6] = assay: Effect on caspase-1 expression in mouse BV-2 cells incubated for 24 hrs by Western blot analysis; type: functional, cell-based
BV-2 [7] = assay: Anti-neuroinflammatory activity in LPS-induced mouse BV-2 cells assessed as decrease in IL-18 secretion preincubated with LPS for 2 hrs followed by compound addition and measured after 24 hrs by ELISA; type: functional, cell-based
Mus musculus [8] = assay: Anti-inflammatory activity in cuprizone fed C57BL/6 mouse model assessed as increase in CD206 expression in corpus callosum at 5 mg/kg, ip pretreated with cuprizone for 6 weeks followed by compound administration for 2 weeks by immunofluorescence staining based confocal microscopic analysis; type: functional, organism-based
BV-2 [9] = assay: Anti-neuroinflammatory activity in LPS-induced mouse BV-2 cells assessed as increase in CD206 labeled microglial cells preincubated with LPS for 2 hrs followed by compound addition and measured after 24 hrs by flow cytometric analysis; type: functional, cell-based
BV-2 [10] = assay: Effect on IL-18 expression in mouse BV-2 cells incubated for 24 hrs by ELISA; type: functional, cell-based
BV-2 [11] = assay: Anti-neuroinflammatory activity in LPS-induced mouse BV-2 cells assessed as decrease in iNOS labeled microglial cells preincubated with LPS for 2 hrs followed by compound addition and measured after 24 hrs by flow cytometric analysis; type: functional, cell-based
BV-2 [12] = assay: Anti-neuroinflammatory activity in LPS-induced mouse BV-2 cells assessed as decrease in CD86 labeled microglial cells preincubated with LPS for 2 hrs followed by compound addition and measured after 24 hrs by flow cytometric analysis; type: functional, cell-based
[13] = molecular target: NACHT, LRR and PYD domains-containing protein 3 (Mus musculus) (UniProt Q8R4B8); assay: Inhibition of NLRP3 inflammasome formation in LPS-stimulated mouse BV-2 cells assessed as downregulation of NLRP3 protein expression preincubated with LPS for 2 hrs followed by compound addition and measured after 24 hrs by Western blot analysis; type: cell-based
NACHT, LRR and PYD domains-containing protein 3 (Mus musculus), sequence (Q8R4B8 whole entry, the tested form may be a part): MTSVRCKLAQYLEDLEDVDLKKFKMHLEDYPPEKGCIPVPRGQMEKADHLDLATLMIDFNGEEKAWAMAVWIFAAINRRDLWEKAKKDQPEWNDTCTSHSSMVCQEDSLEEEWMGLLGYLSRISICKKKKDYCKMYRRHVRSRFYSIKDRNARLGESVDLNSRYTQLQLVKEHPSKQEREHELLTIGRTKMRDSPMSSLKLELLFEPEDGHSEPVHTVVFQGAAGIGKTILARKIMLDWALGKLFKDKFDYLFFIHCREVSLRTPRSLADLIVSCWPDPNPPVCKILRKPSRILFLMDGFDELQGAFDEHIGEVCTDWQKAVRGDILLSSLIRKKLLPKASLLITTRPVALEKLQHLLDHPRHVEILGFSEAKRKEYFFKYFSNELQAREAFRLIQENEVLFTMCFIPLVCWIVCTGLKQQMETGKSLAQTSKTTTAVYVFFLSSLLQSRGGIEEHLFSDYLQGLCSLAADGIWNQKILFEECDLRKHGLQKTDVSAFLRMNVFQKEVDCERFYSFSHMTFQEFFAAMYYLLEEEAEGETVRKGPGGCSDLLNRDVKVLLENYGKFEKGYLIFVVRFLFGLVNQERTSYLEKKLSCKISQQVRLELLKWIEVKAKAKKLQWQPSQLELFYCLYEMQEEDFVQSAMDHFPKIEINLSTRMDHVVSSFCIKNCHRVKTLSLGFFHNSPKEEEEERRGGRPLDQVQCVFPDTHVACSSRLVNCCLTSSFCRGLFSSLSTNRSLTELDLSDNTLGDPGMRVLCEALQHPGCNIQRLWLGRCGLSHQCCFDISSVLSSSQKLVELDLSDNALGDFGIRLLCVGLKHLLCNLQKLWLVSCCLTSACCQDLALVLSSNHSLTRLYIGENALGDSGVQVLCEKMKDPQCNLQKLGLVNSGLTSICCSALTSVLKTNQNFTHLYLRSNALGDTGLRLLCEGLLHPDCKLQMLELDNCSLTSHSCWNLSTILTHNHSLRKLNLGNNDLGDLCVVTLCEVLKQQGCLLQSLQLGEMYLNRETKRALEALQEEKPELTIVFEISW

BV-2 [14] = assay: Anti-neuroinflammatory activity in LPS-induced mouse BV-2 cells assessed as decrease in IL-1beta secretion preincubated with LPS for 2 hrs followed by compound addition and measured after 24 hrs by ELISA; type: functional, cell-based
BV-2 [15] = assay: (§1) Anti-neuroinflammatory activity in mouse BV-2 cells assessed as microglial polarization into M2 phenotype by measuring decrease in iNOS expression preincubated with LPS for 2 hrs followed by compound addition and measured after 24 hrs by immunofluorescence staining based confocal microscopic analysis; type: functional, cell-based
Mus musculus [16] = assay: Anti-inflammatory activity in cuprizone fed C57BL/6 mouse model assessed as increase in remyelination in corpus callosum at 5 mg/kg, ip pretreated with cuprizone for 6 weeks followed by compound administration for 2 weeks by LFB staining based analysis; type: functional, organism-based
BV-2 [17] = assay: Induction of microglial polarization to M2 phenotype in mouse BV-2 cells assessed as decrease in number of M1 phenotype microglial cells incubated for 24 hrs by flow cytometric analysis; type: functional, cell-based
[18] = molecular target: NACHT, LRR and PYD domains-containing protein 3 (Mus musculus) (UniProt Q8R4B8); assay: Inhibition of NLRP3 inflammasome formation in LPS-stimulated mouse BV-2 cells assessed as downregulation of caspase-1 protein expression preincubated with LPS for 2 hrs followed by compound addition and measured after 24 hrs by Western blot analysis; type: cell-based
BV-2 [19] = assay: Effect on IL-10 expression in mouse BV-2 cells incubated for 24 hrs by ELISA; type: functional, cell-based
BV-2 [20] = assay: Downregulation of PKM2 expression in LPS-stimulated mouse BV-2 cells preincubated with LPS for 2 hrs followed by compound addition and measured after 24 hrs by immunofluorescence staining based confocal microscopic analysis; type: functional, cell-based
BV-2 [21] = assay: Anti-neuroinflammatory activity in LPS-induced mouse BV-2 cells assessed as decrease in TNF-alpha secretion preincubated with LPS for 2 hrs followed by compound addition and measured after 24 hrs by ELISA; type: functional, cell-based
BV-2 [22] = assay: Effect on NLRP3 expression in mouse BV-2 cells incubated for 24 hrs by Western blot analysis; type: functional, cell-based
BV-2 [23] = assay: Downregulation of PKM2 expression in LPS-stimulated mouse BV-2 cells preincubated with LPS for 2 hrs followed by compound addition and measured after 24 hrs by Western blot analysis; type: functional, cell-based
BV-2 [24] = assay: Effect on ASC expression in mouse BV-2 cells incubated for 24 hrs by Western blot analysis; type: functional, cell-based
BV-2 [25] = assay: as §1, with “increase” for “decrease”, “CD206” for “iNOS”; type: functional, cell-based
BV-2 [26] = assay: Effect on IL-1beta expression in mouse BV-2 cells incubated for 24 hrs by ELISA; type: functional, cell-based
[27] = molecular target: NACHT, LRR and PYD domains-containing protein 3 (Mus musculus) (UniProt Q8R4B8); assay: Inhibition of NLRP3 inflammasome formation in LPS-stimulated mouse BV-2 cells assessed as downregulation of ASC protein expression preincubated with LPS for 2 hrs followed by compound addition and measured after 24 hrs by Western blot analysis; type: cell-based
BV-2 [28] = assay: Induction of microglial polarization to M2 phenotype in mouse BV-2 cells assessed as increase in number of M2 phenotype microglial cells incubated for 24 hrs by flow cytometric analysis; type: functional, cell-based
BV-2 [29] = assay: Effect on TNF-alpha expression in mouse BV-2 cells incubated for 24 hrs by ELISA; type: functional, cell-based

`COc1cc(OC)c2c(c1)OCCC1=C2NC(N)=NC1c1cc(F)cc(F)c1` (configuration not stated) showed a viability at 24 h, 5 µM [1] of 128% and an inhibition at 5 µM (BV-2 [2]) of 76.8%.

`COc1cc(OC)c2c(c1)OCC/C(=C\c1c(F)cccc1F)C2=O` gave a viability at 24 h, 5 µM [1] of 146% and an inhibition at 5 µM (BV-2 [2]) of 62.5%.

In the case of `COc1cc(OC)c2c(c1)OCCC1=C2NC(N)=NC1c1cccc(F)c1C(F)(F)F` (configuration not stated), the viability at 24 h, 5 µM [1] is reported as 95.4% and the inhibition at 5 µM (BV-2 [2]) is reported as 72.3%.

For `COc1cc(OC)c2c(c1)OCCC1=C2NC(N)=NC1c1cc(C(F)(F)F)cc(C(F)(F)F)c1` (configuration not stated), the Activity (BV-2 [3]) was “Active”, the Activity (BV-2 [4]) was “Active” and the Activity (Mus musculus [5]) was “Active”. The Activity (BV-2 [6]) was “inactive”, the Activity (BV-2 [7]) was “Active” and the Activity (Mus musculus [8]) was “Active”. The Activity (BV-2 [9]) was “Active”, the Activity (BV-2 [10]) was “inactive” and the Activity (BV-2 [11]) was “Active”. For the same compound, the Activity (BV-2 [12]) was “Active”, the inhibition [13] was “Active” and the Activity (BV-2 [14]) was “Active”. For the same compound, the viability at 24 h, 5 µM [1] was 151%, the Activity (BV-2 [15]) was “Active” and the Activity (Mus musculus [16]) was “Active”. For the same compound, the Activity (BV-2 [17]) was “inactive”, the inhibition [18] was “Active” and the Activity (BV-2 [19]) was “inactive”. The Activity (BV-2 [20]) was “Active”, the Activity (BV-2 [21]) was “Active” and the Activity (BV-2 [22]) was “inactive”. For the same compound, the Activity (BV-2 [23]) was “Active”, the Activity (BV-2 [24]) was “inactive” and the Activity (BV-2 [25]) was “Active”. For the same compound, the Activity (BV-2 [26]) was “inactive”, the inhibition [27] was “Active” and the inhibition at 5 µM (BV-2 [2]) was 94.5%. For the same compound, the Activity (BV-2 [28]) was “Active” and the Activity (BV-2 [29]) was “inactive”.

For `COc1cc(OC)c2c(c1)OCC/C(=C\c1cc(C(F)(F)F)cc(C(F)(F)F)c1)C2=O`, the viability at 24 h, 5 µM [1] was 95% and the inhibition at 5 µM (BV-2 [2]) was 88.6%.

For `COc1cc(OC)c2c(c1)OCC/C(=C\c1ccc(F)cc1)C2=O`, the viability at 24 h, 5 µM [1] was 148% and the inhibition at 5 µM (BV-2 [2]) was 46.3%.

In the case of `COc1cncc(-c2nc(N)nc3c2CCc2ccc(F)cc2-3)c1`, the viability at 24 h, 5 µM [1] is reported as 99.3% and the inhibition at 5 µM (BV-2 [2]) is reported as 62.9%.

Compound `COc1cc(OC)c2c(c1)OCC/C(=C\c1ccccc1F)C2=O` has a viability at 24 h, 5 µM [1] of 146% and an inhibition at 5 µM (BV-2 [2]) of 62.1%.

`COc1cc(OC)c2c(c1)OCC/C(=C\c1cccc(F)c1)C2=O` showed a viability at 24 h, 5 µM [1] of 146% and an inhibition at 5 µM (BV-2 [2]) of 69.3%.

In the case of `COc1cc(OC)c2c(c1)OCCC1=C2NC(N)=NC1c1c(F)cccc1C(F)(F)F` (configuration not stated), the viability at 24 h, 5 µM [1] is reported as 124% and the inhibition at 5 µM (BV-2 [2]) is reported as 65.7%.

Work on `COc1cc(OC)c2c(c1)OCCC1=C2NC(N)=NC1c1c(F)cccc1F` (configuration not stated) yielded a viability at 24 h, 5 µM [1] of 126% and an inhibition at 5 µM (BV-2 [2]) of 67.4%.

For `COc1cc(OC)c2c(c1)OCCC1=C2NC(N)=NC1c1ccc(F)cc1` (configuration not stated), the viability at 24 h, 5 µM [1] was 157% and the inhibition at 5 µM (BV-2 [2]) was 56.8%.

Compound `COc1cc(OC)c2c(c1)OCCC1=C2NC(N)=NC1c1cccc(C(F)(F)F)c1F` (configuration not stated) has a viability at 24 h, 5 µM [1] of 111% and an inhibition at 5 µM (BV-2 [2]) of 91.5%.

Work on `COc1cc(OC)c2c(c1)OCCC1=C2NC(N)=NC1c1cccc(C(F)(F)F)c1` (configuration not stated) yielded a viability at 24 h, 5 µM [1] of 109% and an inhibition at 5 µM (BV-2 [2]) of 82.6%.

Compound `COc1cc(OC)c2c(c1)OCCC1=C2NC(N)=NC1c1cccc(F)c1` (configuration not stated) has a viability at 24 h, 5 µM [1] of 120% and an inhibition at 5 µM (BV-2 [2]) of 74.3%.
